Test systems include OVCAR-4 ovarian; SF-539 CNS; UACC-257 melanoma; NCI-H460 lung; OVCAR-3 ovarian; DU-145 prostate; HCT-15 colon; KM12 colon; NCI-H522 lung; TK-10 renal; IGROV1 ovarian; LOX IMVI melanoma; UACC-62 melanoma; SK-OV-3 ovarian; A549 NSCLC; OVCAR-8 ovarian.
Holding throughout (assay): inhibition of tumour cell growth, NCI panel, 48 h

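Method: 48-hour compound exposure of cells in 96-well plates, five concentrations, linear interpolation of endpoints. Definition used: TGI = concentration required for complete inhibition of growth.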

As for `CC1(C)OCC2(CO1)CSCCCSCC1(COC(C)(C)OC1)CSCCCSC2`, the TGI in the assay on OVCAR-4 ovarian, with SF-539 CNS, in the assay on UACC-257 melanoma, with NCI-H460 lung, in the assay on OVCAR-3 ovarian and in the assay with DU-145 prostate was above 100 µM each time. Further, the TGI in the assay with HCT-15 colon, in the assay on KM12 colon, with NCI-H522 lung, in the assay with TK-10 renal, in the assay with IGROV1 ovarian and with LOX IMVI melanoma was above 100 µM each time. The TGI with UACC-62 melanoma, with SK-OV-3 ovarian, in the assay with A549 NSCLC and in the assay with OVCAR-8 ovarian was above 100 µM throughout.
As for `CC1CC(C)[C@H](O)C([C@H](O)CC2CC(=O)N(C)C(=O)C2)C1` (stereo partly specified), the TGI with OVCAR-4 ovarian, with SF-539 CNS, in the assay with UACC-257 melanoma, in the assay with NCI-H460 lung, in the assay on OVCAR-3 ovarian and in the assay with DU-145 prostate was above 100 µM each time. Further, the TGI with HCT-15 colon, with KM12 colon, in the assay on NCI-H522 lung, with TK-10 renal, in the assay with IGROV1 ovarian and with LOX IMVI melanoma was above 100 µM in each case. Besides, the TGI with UACC-62 melanoma, in the assay with SK-OV-3 ovarian, in the assay on A549 NSCLC and in the assay with OVCAR-8 ovarian was above 100 µM each time.
With `COc1ccc(N)c(C(O)CCNC(C)=O)c1` (stereo unspecified), the TGI with OVCAR-4 ovarian, with SF-539 CNS, with UACC-257 melanoma, in the assay with NCI-H460 lung, with OVCAR-3 ovarian and in the assay with DU-145 prostate was above 100 µM throughout. The TGI in the assay with HCT-15 colon, in the assay with KM12 colon, with NCI-H522 lung, with TK-10 renal, with IGROV1 ovarian and with LOX IMVI melanoma was above 100 µM in each case. Moreover, the TGI in the assay on UACC-62 melanoma, in the assay with SK-OV-3 ovarian, in the assay with A549 NSCLC and with OVCAR-8 ovarian was above 100 µM each time.
In the case of `C/C(=N/NC(=O)c1ccncc1)c1ccc(NC(=O)C(=O)Nn2c(=S)[nH]c3ccccc3c2=O)cc1`, the TGI in the assay on OVCAR-4 ovarian, in the assay with SF-539 CNS, in the assay with UACC-257 melanoma, with NCI-H460 lung, in the assay on OVCAR-3 ovarian and in the assay with DU-145 prostate was above 100 µM in each case. Also, the TGI in the assay with HCT-15 colon, with KM12 colon, in the assay with NCI-H522 lung, in the assay with TK-10 renal, in the assay on IGROV1 ovarian and with LOX IMVI melanoma was above 100 µM in each case. Moreover, the TGI in the assay on UACC-62 melanoma, in the assay on SK-OV-3 ovarian, in the assay on A549 NSCLC and in the assay on OVCAR-8 ovarian was above 100 µM each time.
`COC(=O)c1ccc(Oc2nc3ccccc3nc2-c2cccs2)cc1`: the TGI in the assay with OVCAR-4 ovarian, in the assay with SF-539 CNS, with UACC-257 melanoma, with NCI-H460 lung, with OVCAR-3 ovarian and in the assay on DU-145 prostate was above 100 µM in each case. Also, the TGI in the assay on HCT-15 colon is above 100 µM; in the assay with KM12 colon, above 100 µM; in the assay with NCI-H522 lung it was above 100 µM; with TK-10 renal, 86.8 µM; with IGROV1 ovarian, above 100 µM; in the assay on LOX IMVI melanoma, above 100 µM. The TGI was above 100 µM in the assay on UACC-62 melanoma, above 100 µM with SK-OV-3 ovarian, 76.9 µM in the assay on A549 NSCLC and above 100 µM in the assay with OVCAR-8 ovarian.
For the compound `COC(=O)c1ccccc1/C=C1/Cc2cccc(C)c2C1=O`, the TGI with OVCAR-4 ovarian, in the assay on SF-539 CNS, with UACC-257 melanoma, with NCI-H460 lung, with OVCAR-3 ovarian and with DU-145 prostate was above 100 µM throughout. The TGI with HCT-15 colon, with KM12 colon, in the assay on NCI-H522 lung, in the assay with TK-10 renal, in the assay on IGROV1 ovarian and in the assay on LOX IMVI melanoma was above 100 µM each time. Also, the TGI in the assay on UACC-62 melanoma, in the assay on SK-OV-3 ovarian, in the assay on A549 NSCLC and in the assay on OVCAR-8 ovarian was above 100 µM in each case.
In the case of `CN1CCC(CNC(=O)CCCCCCCCC(=O)NCC2(c3ccccc3)CCN(C)CC2)(c2ccccc2)CC1`, the TGI in the assay on OVCAR-4 ovarian is above 100 µM; in the assay on SF-539 CNS it was 48.8 µM; with UACC-257 melanoma it was above 100 µM; with NCI-H460 lung it was above 100 µM; with OVCAR-3 ovarian, above 100 µM; in the assay with DU-145 prostate it was above 100 µM. Besides, the TGI in the assay on HCT-15 colon, with KM12 colon, in the assay on NCI-H522 lung, in the assay on TK-10 renal, with IGROV1 ovarian and in the assay on LOX IMVI melanoma was above 100 µM throughout. Further, the TGI in the assay with UACC-62 melanoma, with SK-OV-3 ovarian, in the assay with A549 NSCLC and with OVCAR-8 ovarian was above 100 µM each time.
In the case of `C[n+]1noc(/N=N\[O-])c1-c1cc(-c2c(/N=N\[O-])on[n+]2C)cc(-c2c(/N=N/[O-])on[n+]2C)c1`, the TGI with OVCAR-4 ovarian, with SF-539 CNS, with UACC-257 melanoma, with NCI-H460 lung, with OVCAR-3 ovarian and with DU-145 prostate was above 100 µM in each case. In addition, the TGI with HCT-15 colon, in the assay on KM12 colon, with NCI-H522 lung, in the assay on TK-10 renal, in the assay on IGROV1 ovarian and in the assay with LOX IMVI melanoma was above 100 µM each time. Moreover, the TGI in the assay with UACC-62 melanoma, with SK-OV-3 ovarian, with A549 NSCLC and in the assay with OVCAR-8 ovarian was above 100 µM each time.
With `CC(C)(C)OC(=O)NC1CC=CCC1NC(=O)OC(C)(C)C` (stereo unspecified), the TGI in the assay with OVCAR-4 ovarian, with SF-539 CNS, in the assay on UACC-257 melanoma, in the assay with NCI-H460 lung, with OVCAR-3 ovarian and with DU-145 prostate was above 100 µM each time. Besides, the TGI in the assay on HCT-15 colon, in the assay with KM12 colon, with NCI-H522 lung, in the assay with TK-10 renal, with IGROV1 ovarian and with LOX IMVI melanoma was above 100 µM in each case. Further, the TGI with UACC-62 melanoma, with SK-OV-3 ovarian, in the assay with A549 NSCLC and in the assay on OVCAR-8 ovarian was above 100 µM in each case.
For the compound `O=C1NCN(c2ccccc2)C12CCN(CCc1ccc3[nH]c(=S)[nH]c3c1)CC2`, the TGI is above 100 µM in the assay on OVCAR-4 ovarian; 58.4 µM with SF-539 CNS; 15.6 µM in the assay on UACC-257 melanoma; above 100 µM in the assay with NCI-H460 lung; above 100 µM with OVCAR-3 ovarian; above 100 µM in the assay with DU-145 prostate. In addition, the TGI in the assay on HCT-15 colon was above 100 µM; in the assay on KM12 colon, above 100 µM; in the assay on NCI-H522 lung it was above 100 µM; in the assay on TK-10 renal, 92.9 µM; in the assay on IGROV1 ovarian, above 100 µM; with LOX IMVI melanoma, 36.8 µM. Further, the TGI in the assay with UACC-62 melanoma, in the assay on SK-OV-3 ovarian, with A549 NSCLC and with OVCAR-8 ovarian was above 100 µM each time.
Regarding `Clc1cc(OCc2nn3c(Cc4ccccc4)nnc3s2)ccc1OCc1nn2c(Cc3ccccc3)nnc2s1`, the TGI in the assay on OVCAR-4 ovarian was 59.3 µM; in the assay on SF-539 CNS, above 100 µM; in the assay with UACC-257 melanoma, above 100 µM; in the assay on NCI-H460 lung, above 100 µM; in the assay on OVCAR-3 ovarian, above 100 µM; in the assay with DU-145 prostate, above 100 µM. Moreover, the TGI is above 100 µM in the assay with HCT-15 colon; above 100 µM in the assay on KM12 colon; above 100 µM in the assay with NCI-H522 lung; 72.1 µM in the assay with TK-10 renal; above 100 µM with IGROV1 ovarian; above 100 µM in the assay with LOX IMVI melanoma. Besides, the TGI was above 100 µM in the assay with UACC-62 melanoma, above 100 µM in the assay with SK-OV-3 ovarian, above 100 µM in the assay with A549 NSCLC and 62.9 µM in the assay on OVCAR-8 ovarian.

The record behind these values is PubChem BioAssay (NCI).
